Read-outs that look alike come from different tables or passages of the source.
Test system: HCV 1b-377-neo replicon cells
Experiment: HCV Replicon assay, HCV 1b genotype
Type: cell-based
Method: An HCV Replicon assay was utilized in the present disclosure, and was prepared, conducted and validated as described in commonly owned PCT/US2006/022197 and in O'Boyle et. al. Antimicrob Agents Chemother. 2005 April; 49(4): 1346-53.
HCV 1b-377-neo replicon cells were used to test the currently described compound series as well as cells resistant to compound A containing a Y2065H mutation in NS5A (described in application PCT/US2006/022197). The compounds tested were determined to have more than 10-fold less inhibitory activity on cells containing the mutation than wild-type cells indicating a related mechanism of action between the two compound series. Thus, the compounds of the present disclosure can be effective to inhibit the function of the HCV NS5A protein and are understood to be as effective in combinations as previously described in application PCT/US2006/022197 and commonly owned WO/04014852. Further, the compounds of the present disclosure can be effective against the HCV 1b genotype. It should also be understood that the compounds of the present disclosure can inhibit multiple genotypes of HCV. […] In one embodiment compounds of the present disclosure are active against the 1a, 1b, 2a, 2b, 3a, 4a, and 5a genotypes.

[1] = Hepatitis C virus, value in pM, read-out: EC50 value against HCV 1b
[2] = Hepatitis C virus, class symbol, read-out: EC50 range against HCV 1b

| Compound | EC50 [2] [pM] | further results |
| --- | --- | --- |
| COCCn1c2cc(-c3cnc([C@@H]4CCCN4C(=O)[C@@H](NC(=O)OC)[C@@H](C)OC)[nH]3)ccc2c2ccc(-c3cnc([C@@H]4CCCN4C(=O)[C@@H](NC(=O)OC)[C@@H](C)OC)[nH]3)cc21 [Example 35, methyl ((1S,2R)-2-methoxy-1-(((2S)-2-(5-(7-(2-((2S)-1-(N-(methoxycarbonyl)-O-methyl-L-threonyl)-2-pyrrolidinyl)-1H-imidazol-5-yl)-9-(2-methoxyethyl)-9H-carbazol-2-yl)-1H-imidazol-2-yl)-1-pyrrolidinyl)carbonyl)propyl)carbamate] | – | EC50 [1]: 662 pM |
| COC(=O)N[C@@H](C)C(=O)N1CCC[C@H]1c1ncc(-c2ccc3c(c2)C2(CCC2)c2cc(-c4cnc([C@@H]5CCCN5C(=O)[C@H](C)NC(=O)OC)[nH]4)ccc2-3)[nH]1 [Example 17] | 1 to 100 | – |
| COC(=O)N[C@H](C(=O)N1CCC[C@H]1c1ncc(-c2ccc3c(c2)oc2cc(-c4cnc([C@@H]5CCCN5C(=O)[C@@H](NC(=O)OC)C(C)(C)C)[nH]4)ccc23)[nH]1)C(C)(C)C [Example 20, methyl ((1S)-1-(((2S)-2-(4-(7-(2-((2S)-1-((2S)-2-((methoxycarbonyl)amino)-3,3-dimethylbutanoyl)-2-pyrrolidinyl)-1H-imidazol-4-yl)dibenzo[b,d]furan-3-yl)-1H-imidazol-2-yl)-1-pyrrolidinyl)carbonyl)-2,2-dimethylpropyl)carbamate] | 1 to 100 | – |
| COC(=O)N[C@H](C(=O)N1CCC[C@H]1c1ncc(-c2ccc3c(c2)C(N(C)C)c2cc(-c4cnc([C@@H]5CCCN5C(=O)[C@@H](NC(=O)OC)C(C)C)[nH]4)ccc2-3)[nH]1)C(C)C [Example 3, methyl ((1S)-1-(((2S)-2-(5-(9-(dimethylamino)-7-(2-((2S)-1-((2S)-2-((methoxycarbonyl)amino)-3-methylbutanoyl)-2-pyrrolidinyl)-1H-imidazol-5-yl)-9H-fluoren-2-yl)-1H-imidazol-2-yl)-1-pyrrolidinyl)carbonyl)-2-methylpropyl)carbamate] | 101 to 999 | – |
| COC(=O)N[C@@H](C)C(=O)N1CCC[C@H]1c1ncc(-c2ccc3c4ccc(-c5cnc([C@@H]6CCCN6C(=O)[C@H](C)NC(=O)OC)[nH]5)cc4n(S(=O)(=O)c4ccccc4)c3c2)[nH]1 [Example 26, methyl ((1S)-2-((2S)-2-(5-(7-(2-((2S)-1-(N-(methoxycarbonyl)-L-alanyl)-2-pyrrolidinyl)-1H-imidazol-5-yl)-9-(phenylsulfonyl)-9H-carbazol-2-yl)-1H-imidazol-2-yl)-1-pyrrolidinyl)-1-methyl-2-oxoethyl)carbamate] | 1 to 100 | – |
| COCCn1c2cc(-c3cnc([C@@H]4CCCN4C(=O)[C@H](C)NC(=O)OC)[nH]3)ccc2c2ccc(-c3cnc([C@@H]4CCCN4C(=O)[C@H](C)NC(=O)OC)[nH]3)cc21 [Example 34, methyl ((1S)-2-((2S)-2-(5-(7-(2-((2S)-1-(N-(methoxycarbonyl)-L-alanyl)-2-pyrrolidinyl)-1H-imidazol-5-yl)-9-(2-methoxyethyl)-9H-carbazol-2-yl)-1H-imidazol-2-yl)-1-pyrrolidinyl)-1-methyl-2-oxoethyl)carbamate] | 1000 to 99000 | – |
| COC(=O)N[C@H](C(=O)N1CCC[C@H]1c1ncc(-c2ccc3c(c2)[nH]c2cc(-c4cnc([C@@H]5CCCN5C(=O)[C@@H](NC(=O)OC)C(C)C)[nH]4)ccc23)[nH]1)C(C)C [Example 32] | 101 to 999 | – |
| COC(=O)N[C@H](C(=O)N1CCC[C@H]1c1ncc(-c2ccc3c(c2)oc2cc(-c4cnc([C@@H]5CCCN5C(=O)[C@@H](NC(=O)OC)C5CC5)[nH]4)ccc23)[nH]1)C1CC1 [Example 19, dimethyl (dibenzo[b,d]furan-3,7-diylbis(1H-imidazole-4,2-diyl(2S)-2,1-pyrrolidinediyl((1S)-1-cyclopropyl-2-oxo-2,1-ethanediyl)))biscarbamate] | 1 to 100 | – |
| COC(=O)N[C@H](C(=O)N1CCC[C@H]1c1ncc(-c2ccc3c(c2)C(C)(C)c2cc(-c4cnc([C@@H]5CCCN5C(=O)[C@@H](NC(=O)OC)C(C)C)[nH]4)ccc2-3)[nH]1)C(C)C [Example 14, methyl ((1S)-1-(((2S)-2-(5-(7-(2-((2S)-1-((2S)-2-((methoxycarbonyl)amino)-3-methylbutanoyl)-2-pyrrolidinyl)-1H-imidazol-5-yl)-9,9-dimethyl-9H-fluoren-2-yl)-1H-imidazol-2-yl)-1-pyrrolidinyl)carbonyl)-2-methylpropyl)carbamate] | 1 to 100 | – |
| COC(=O)N[C@H](C(=O)N1CCC[C@H]1c1ncc(-c2ccc3c4ccc(-c5cnc([C@@H]6CCCN6C(=O)[C@@H](NC(=O)OC)[C@@H](C)OC)[nH]5)cc4n(C)c3c2)[nH]1)[C@@H](C)OC [Example 23, methyl ((1S,2R)-2-methoxy-1-(((2S)-2-(5-(7-(2-((2S)-1-(N-(methoxycarbonyl)-O-methyl-L-threonyl)-2-pyrrolidinyl)-1H-imidazol-5-yl)-9-methyl-9H-carbazol-2-yl)-1H-imidazol-2-yl)-1-pyrrolidinyl)carbonyl)propyl) carbamate] | – | EC50 (class symbol, read-out: EC50 range against HCV 1b): 1 to 100 pM |
| COC(=O)NC(C(=O)N1CCC[C@H]1c1ncc(-c2ccc3c(c2)COCc2cc(-c4cnc([C@@H]5CCCN5C(=O)C(NC(=O)OC)C5CCOCC5)[nH]4)ccc2-3)[nH]1)C1CCOCC1 (stereo partly drawn) [Example 10A, dimethyl (5,7-dihydrodibenzo[c,e]oxepine-3,9-diylbis(1H-imidazole-4,2-diyl(2S)-2,1-pyrrolidinediyl(2-oxo-1-(tetrahydro-2H-pyran-4-yl)-2,1-ethanediyl)))biscarbamate] | 1000 to 99000 | – |
| COC(=O)N[C@H](C(=O)N1CCC[C@H]1c1ncc(-c2ccc3c4ccc(-c5cnc([C@@H]6CCCN6C(=O)[C@@H](NC(=O)OC)C(C)C)[nH]5)cc4n(C)c3c2)[nH]1)C(C)C [Example 25, methyl ((1S)-1-(((2S)-2-(5-(7-(2-((2S)-1-((2S)-2-((methoxycarbonyl)amino)-3-methylbutanoyl)-2-pyrrolidinyl)-1H-imidazol-5-yl)-9-methyl-9H-carbazol-2-yl)-1H-imidazol-2-yl)-1-pyrrolidinyl)carbonyl)-2-methylpropyl)carbamate] | 1 to 100 | – |
| COC(=O)N[C@H](C(=O)N1CCC[C@H]1c1ncc(-c2ccc3c(c2)C(C)(C)c2cc(-c4cnc([C@@H]5CCCN5C(=O)[C@@H](NC(=O)OC)C5CC5)[nH]4)ccc2-3)[nH]1)C1CC1 [Example 15, dimethyl ((9,9-dimethyl-9H-fluorene-2,7-diyl)bis(1H-imidazole-5,2-diyl(2S)-2,1-pyrrolidinediyl((1S)-1-cyclopropyl-2-oxo-2,1-ethanediyl)))biscarbamate] | – | EC50 [1]: 52 pM |
| COCCn1c2cc(-c3cnc([C@@H]4CCCN4C(=O)[C@@H](NC(=O)OC)C(C)C)[nH]3)ccc2c2ccc(-c3cnc([C@@H]4CCCN4C(=O)[C@@H](NC(=O)OC)C(C)C)[nH]3)cc21 [Example 33, methyl ((1S)-1-(((2S)-2-(5-(7-(2-((2S)-1-((2S)-2-((methoxycarbonyl)amino)-3-methylbutanoyl)-2-pyrrolidinyl)-1H-imidazol-5-yl)-9-(2-methoxyethyl)-9H-carbazol-2-yl)-1H-imidazol-2-yl)-1-pyrrolidinyl)carbonyl)-2-methylpropyl)carbamate] | 1 to 100 | – |
| COC(=O)N[C@H](C(=O)N1CCC[C@H]1c1ncc(-c2ccc3c(c2)CN(C)Cc2cc(-c4cnc([C@@H]5CCCN5C(=O)[C@@H](NC(=O)OC)C(C)C)[nH]4)ccc2-3)[nH]1)C(C)C [Example 6, methyl ((1S)-1-(((2S)-2-(5-(9-(2-((2S)-1-((2S)-2-((methoxycarbonyl)amino)-3-methylbutanoyl)-2-pyrrolidinyl)-1H-imidazol-5-yl)-6-methyl-6,7-dihydro-5H-dibenzo[c,e]azepin-3-yl)-1H-imidazol-2-yl)-1-pyrrolidinyl)carbonyl)-2-methylpropyl) carbamate] | – | EC50 (Hepatitis C virus, value in nM, read-out: EC50 value against HCV 1b): 2000 pM |
| COC(=O)N[C@H](C(=O)N1CCC[C@H]1c1ncc(-c2ccc3c(c2)Cc2cc(-c4cnc([C@@H]5CCCN5C(=O)[C@@H](NC(=O)OC)C(C)C)[nH]4)ccc2-3)[nH]1)C(C)C [Example 4, methyl ((1S)-1-(((2S)-2-(5-(7-(2-((2S)-1-((2S)-2-((methoxycarbonyl)amino)-3-methylbutanoyl)-2-pyrrolidinyl)-1H-imidazol-5-yl)-9H-fluoren-2-yl)-1H-imidazol-2-yl)-1-pyrrolidinyl)carbonyl)-2-methylpropyl)carbamate] | 1 to 100 | – |
| COC(=O)N[C@H](C(=O)N1CCC[C@H]1c1ncc(-c2ccc3c4ccc(-c5cnc([C@@H]6CCCN6C(=O)[C@@H](NC(=O)OC)C(C)C)[nH]5)cc4n(S(=O)(=O)c4ccccc4)c3c2)[nH]1)C(C)C [Example 27, methyl ((1S)-1-(((2S)-2-(5-(7-(2-((2S)-1-((2S)-2-((methoxycarbonyl)amino)-3-methylbutanoyl)-2-pyrrolidinyl)-1H-imidazol-5-yl)-9-(phenylsulfonyl)-9H-carbazol-2-yl)-1H-imidazol-2-yl)-1-pyrrolidinyl)carbonyl)-2-methylpropyl)carbamate] | 1 to 100 | – |
| COC(=O)N[C@H](C(=O)N1CCC[C@H]1c1ncc(-c2ccc3c(c2)COCc2cc(-c4cnc([C@@H]5CCCN5C(=O)[C@@H](NC(=O)OC)C5CCOCC5)[nH]4)ccc2-3)[nH]1)C1CCOCC1 [Example 10, dimethyl (5,7-dihydrodibenzo[c,e]oxepine-3,9-diylbis(1H-imidazole-4,2-diyl(2S)-2,1-pyrrolidinediyl((1S)-2-oxo-1-(tetrahydro-2H-pyran-4-yl)-2,1-ethanediyl)))biscarbamate] | 101 to 999 | – |

— US7704992B2, “Hepatitis C virus inhibitors” (Bristol-Myers Squibb Company, priority 2008, dated 2010)
